# Values joined by “and” are separate entries in the source; they are usually repeats but may differ in a detail not shown here. Equal values may be shown once. Toxic doses and inconclusive results are not listed.
# Tested on: B6C3F1 mice, B16 melanoma ip, median survival T/C
# Assay: NCI In Vivo Anticancer Drug Screen. Data for tumor model B16 Melanoma (intraperitoneal) in B6C3F1 mice
# Settings: endpoint: median survival time, higher = longer survival
# Protocol: The antitumor activity of compounds was measured in mice bearing transplantable tumors. Survival or tumor size were measured and the results are expressed as the measurement made in the treated group (T) divided by the measurement made in the vehicle treated control group (C). The tumor model used in this assay is B16 Melanoma (intraperitoneal) in B6C3F1 mice
# [1] = dose: 12.5 mg/kg/injection, schedule: Q01DX009 (ip), vehicle: saline with Tween-80
# [2] = dose: 25.0 mg/kg/injection, schedule: Q01DX009 (ip), vehicle: saline with Tween-80
# [3] = dose: 50.0 mg/kg/injection, schedule: Q01DX009 (ip), vehicle: saline with Tween-80
# [4] = dose: 100.0 mg/kg/injection, schedule: Q01DX009 (ip), vehicle: saline with Tween-80
# [5] = dose: 200.0 mg/kg/injection, schedule: Q01DX009 (ip), vehicle: saline with Tween-80
# [6] = dose: 6.25 mg/kg/injection, schedule: Q01DX009 (ip), vehicle: saline with Tween-80
# [7] = dose: 6.0 mg/kg/injection, schedule: Q01DX009 (ip), vehicle: Klucel (hydroxypropylcellulose) (HPC)
# [8] = dose: 12.0 mg/kg/injection, schedule: Q01DX009 (ip), vehicle: Klucel (hydroxypropylcellulose) (HPC)
# [9] = dose: 24.0 mg/kg/injection, schedule: Q01DX009 (ip), vehicle: Klucel (hydroxypropylcellulose) (HPC)
# [10] = dose: 12.5 mg/kg/injection, schedule: Q01DX009 (ip), vehicle: saline
# [11] = dose: 50.0 mg/kg/injection, schedule: Q01DX009 (ip), vehicle: saline
# [12] = dose: 100.0 mg/kg/injection, schedule: Q01DX009 (ip), vehicle: saline
# [13] = dose: 200.0 mg/kg/injection, schedule: Q01DX009 (ip), vehicle: saline
# [14] = dose: 25.0 mg/kg/injection, schedule: Q01DX009 (ip), vehicle: saline
# [15] = dose: 25.0 mg/kg/injection, schedule: Q01DX009 (ip), vehicle: Klucel (hydroxypropylcellulose) (HPC)
smiles,measurement,setting,value
O=CN(SSN(C=O)C1CCCCC1)C1CCCCC1,T/C,[1],90 % of control
same,T/C,[2],106 % of control
same,T/C,[3],101 % of control
same,T/C,[4],89 % of control
same,T/C,[5],97 % of control
ClCc1ccc2ccccc2n1,T/C,[2],107 % of control
same,T/C,[3],102 % of control
COc1ccc(S(=O)(=O)N=N/C=C2\C=CC=CN2O)cc1OC,T/C,"dose: 3.0 mg/kg/injection, schedule: Q01DX009 (ip), vehicle: saline with Tween-80",119 % of control
same,T/C,"dose: 3.12 mg/kg/injection, schedule: Q01DX009 (ip), vehicle: saline with Tween-80",111 % of control
same,T/C,"dose: 6.0 mg/kg/injection, schedule: Q01DX009 (ip), vehicle: saline with Tween-80",123 % of control
same,T/C,[6],102 % of control
same,T/C,[1],107 % of control
same,T/C,[2],123 % of control
same,T/C,[3],122 % of control
COc1ccc(-c2c3c(cc4cc5c(cc24)OCO5)C(=O)OC3)cc1OC,T/C,[7],100 % of control
same,T/C,[8],117 % of control and 105 % of control
same,T/C,[9],88 % of control and 99 % of control
COc1cccc2c1C(=O)c1c(O)c3c(c(O)c1C2=O)C[C@@](O)(C(=O)CO)C[C@@H]3OC1CC(N)C(O)C(C)O1 (stereo partly specified),T/C,"dose: 0.12 mg/kg/injection, schedule: Q01DX009 (ip), vehicle: water",166 % of control
same,T/C,"dose: 0.13 mg/kg/injection, schedule: Q01DX009 (ip), vehicle: water",195 % of control
same,T/C,"dose: 0.25 mg/kg/injection, schedule: Q01DX009 (ip), vehicle: water",188 % of control and 212 % of control and 252 % of control
same,T/C,"dose: 0.5 mg/kg/injection, schedule: Q01DX001 (ip), vehicle: saline",152 % of control and 159 % of control
same,T/C,"dose: 0.5 mg/kg/injection, schedule: Q01DX009 (ip), vehicle: water",226 % of control and 247 % of control and 285 % of control
same,T/C,"dose: 1.0 mg/kg/injection, schedule: Q01DX001 (ip), vehicle: saline",165 % of control and 193 % of control
same,T/C,"dose: 1.0 mg/kg/injection, schedule: Q01DX009 (ip), vehicle: water",264 % of control and 285 % of control and 320 % of control
same,T/C,"dose: 2.0 mg/kg/injection, schedule: Q01DX001 (ip), vehicle: saline",151 % of control and 192 % of control and 244 % of control
same,T/C,"dose: 2.0 mg/kg/injection, schedule: Q01DX005 (ip), vehicle: saline",326 % of control
same,T/C,"dose: 2.0 mg/kg/injection, schedule: Q01DX009 (ip), vehicle: water",229 % of control and 278 % of control and 285 % of control
same,T/C,"dose: 4.0 mg/kg/injection, schedule: Q01DX001 (iv), vehicle: saline",109 % of control
same,T/C,"dose: 4.5 mg/kg/injection, schedule: Q01DX001 (ip), vehicle: saline",195 % of control
same,T/C,"dose: 9.0 mg/kg/injection, schedule: Q01DX001 (ip), vehicle: saline",174 % of control and 255 % of control
same,T/C,"dose: 18.0 mg/kg/injection, schedule: Q01DX001 (ip), vehicle: saline",103 % of control
same,T/C,"dose: 10.0 micrograms/kg/injection, schedule: Q01DX005 (ip), vehicle: saline",100 % of control
same,T/C,"dose: 10.0 micrograms/mouse/injection, schedule: Q01DX005 (ip), vehicle: saline",220 % of control
same,T/C,"dose: 20.0 micrograms/kg/injection, schedule: Q01DX005 (ip), vehicle: saline",116 % of control
same,T/C,"dose: 20.0 micrograms/mouse/injection, schedule: Q01DX005 (ip), vehicle: saline",197 % of control
same,T/C,"dose: 40.0 micrograms/mouse/injection, schedule: Q01DX005 (ip), vehicle: saline",273 % of control
COP12(OCCO1)SC(C(F)(F)F)=C(C(F)(F)F)S2,T/C,[1],100 % of control
same,T/C,[2],96 % of control
same,T/C,[3],104 % of control
Oc1ccc(CCl)c2cccnc12,T/C,"dose: 12.0 mg/kg/injection, schedule: Q01DX009 (ip), vehicle: saline",102 % of control
same,T/C,[10],100 % of control
CC1(C)N=C(N)N=C(N)N1c1ccc(CCCCc2ccc(S(=O)(=O)F)cc2Cl)c(Cl)c1,T/C,"dose: 1.56 mg/kg/injection, schedule: Q01DX009 (ip), vehicle: other",100 % of control
same,T/C,"dose: 1.56 mg/kg/injection, schedule: Q01DX009 (ip), vehicle: saline with Tween-80",122 % of control
same,T/C,"dose: 3.12 mg/kg/injection, schedule: Q01DX009 (ip), vehicle: other",104 % of control
same,T/C,"dose: 6.25 mg/kg/injection, schedule: Q01DX009 (ip), vehicle: other",109 % of control
same,T/C,"dose: 12.5 mg/kg/injection, schedule: Q01DX009 (ip), vehicle: other",102 % of control
same,T/C,[2],156 % of control
CN(C)CC1CCCC(CN(C)C)C1=O (stereo unspecified),T/C,[11],103 % of control
same,T/C,[12],97 % of control
same,T/C,[13],100 % of control
N#CC(OC1OC(COC2OC(CO)C(O)C(O)C2O)C(O)C(O)C1O)c1ccccc1 (stereo unspecified),T/C,[14],101 % of control
same,T/C,"dose: 25.0 mg/kg/injection, schedule: Q01DX009 (ip), vehicle: water",100 % of control
same,T/C,[11],104 % of control
same,T/C,"dose: 50.0 mg/kg/injection, schedule: Q01DX009 (ip), vehicle: water",102 % of control
same,T/C,[12],105 % of control
same,T/C,"dose: 100.0 mg/kg/injection, schedule: Q01DX009 (ip), vehicle: water",102 % of control
same,T/C,[13],106 % of control
same,T/C,"dose: 200.0 mg/kg/injection, schedule: Q01DX009 (ip), vehicle: water",117 % of control
same,T/C,"dose: 400.0 mg/kg/injection, schedule: Q01DX009 (ip), vehicle: saline",101 % of control
same,T/C,"dose: 400.0 mg/kg/injection, schedule: Q01DX009 (ip), vehicle: water",106 % of control
same,T/C,"dose: 800.0 mg/kg/injection, schedule: Q01DX009 (ip), vehicle: saline",100 % of control
same,T/C,"dose: 800.0 mg/kg/injection, schedule: Q01DX009 (ip), vehicle: water",106 % of control
CCC(=O)OCC1OC(n2cnc3c(=S)nc(N)[nH]c32)C(OC(=O)CC)C1OC(=O)CC (stereo unspecified),T/C,[15],86 % of control
NC1=NC(=O)N2CC12 (stereo unspecified),T/C,[10],105 % of control
same,T/C,[14],95 % of control
same,T/C,[11],95 % of control
same,T/C,[12],89 % of control
O=C1O/C(=C2\OCc3ccccc32)c2ccccc21,T/C,[2],115 % of control
same,T/C,[3],119 % of control
same,T/C,[4],96 % of control
same,T/C,[5],102 % of control
CC1/C=C/C=C/CC/C=C/C=C/C=C/C=C/C(OC2OC(C)C(O)C(N)C2O)CC2OC(CC(O)C(O)CCC(O)CC(O)CC(O)CC(=O)OC(C)C(C)C1O)CC(O)C2C(=O)O (stereo unspecified),T/C,[6],107 % of control
same,T/C,[1],96 % of control
same,T/C,[2],102 % of control
same,T/C,[3],98 % of control
same,T/C,[4],90 % of control
CN1[C@@H](CC(=O)c2ccccc2)CCC[C@H]1CC(=O)c1ccccc1,T/C,[14],104 % of control
same,T/C,[11],112 % of control
same,T/C,[12],98 % of control
COc1ccc2c(c1)-c1nn(CCCN(C)C)c3ccc([N+](=O)[O-])c(c13)N2,T/C,"dose: 1.56 mg/kg/injection, schedule: Q01DX009 (ip), vehicle: water",110 % of control
same,T/C,"dose: 3.12 mg/kg/injection, schedule: Q01DX009 (ip), vehicle: water",116 % of control and 122 % of control
CN1CCN(CCCN2c3ccccc3Sc3ccc(C(F)(F)F)cc32)CC1,T/C,"dose: 3.12 mg/kg/injection, schedule: Q01DX009 (ip), vehicle: saline",100 % of control
same,T/C,"dose: 6.25 mg/kg/injection, schedule: Q01DX009 (ip), vehicle: saline",106 % of control
same,T/C,"dose: 8.0 mg/kg/injection, schedule: Q01DX009 (ip), vehicle: saline",107 % of control
same,T/C,[10],98 % of control
same,T/C,"dose: 16.0 mg/kg/injection, schedule: Q01DX009 (ip), vehicle: saline",93 % of control
same,T/C,"dose: 32.0 mg/kg/injection, schedule: Q01DX009 (ip), vehicle: saline",87 % of control
BrC1c2cccc3cccc(c23)C1Br (stereo unspecified),T/C,[1],123 % of control
same,T/C,[3],155 % of control
Nc1c(/C=C/c2cc3cc(C4=NCCN4)ccc3o2)[nH]c2cc(C3=NCCN3)ccc12,T/C,"dose: 1.5 mg/kg/injection, schedule: Q01DX009 (ip), vehicle: Klucel (hydroxypropylcellulose) (HPC)",108 % of control
same,T/C,"dose: 3.0 mg/kg/injection, schedule: Q01DX009 (ip), vehicle: Klucel (hydroxypropylcellulose) (HPC)",98 % of control
same,T/C,[7],95 % of control
same,T/C,[8],98 % of control
same,T/C,"dose: 12.5 mg/kg/injection, schedule: Q01DX009 (ip), vehicle: Klucel (hydroxypropylcellulose) (HPC)",90 % of control
same,T/C,[9],90 % of control
same,T/C,[15],89 % of control
O=C1CN(Cc2ccc3c(c2)OCO3)NO1,T/C,[6],103 % of control and 106 % of control
same,T/C,[1],109 % of control and 95 % of control
same,T/C,[2],112 % of control and 107 % of control
same,T/C,[3],115 % of control and 117 % of control
same,T/C,[4],115 % of control

# — PubChem BioAssay AID200 (DTP/NCI, 2004)
